Measured values published in patent US8178538B2, “Pyridazinones” (Hoffmann-La Roche Inc., priority 2008, dated 2012).

Target: T1, PDE10A2 (Homo sapiens, UniProt Q9Y233)
T1 construct: residues serine 449 to aspartate 789; His6 (H6) with thrombin cleavage site (N, cleaved yes); made in house; host or cells: E. coli BL21(DE3) pLysS
Assay: PDE10A2 inhibition, Scintillation Proximity Assay (SPA)
Type: biochemical
Conditions: catalytic domain of human PDE10A2 (S449-D789), 0.25 nM enzyme, 50 nM cGMP + 50 nM [3H]-cGMP, 30 minutes at room temperature
Procedure: The following tests were carried out in order to determine the activity of the compounds of the present invention. PDE10 activity of the compounds of the present invention is determined using a Scintillation Proximity Assay (SPA)-based method similar to the one previously described (Fawcett, L. et al., Proc Natl Acad Sci USA (2000) 97(7):3702-3707).
PDE10A1 and PDE10A2 are two splice variants of PDE10A. There are these 2 splice variants known, which differ in the N-terminal part of the protein. The catalytic domains of PDE10A1 and PDE10A2 are identical. The assay for PDE10A2 described below is therefore also representative for PDE10A1 and also for PDE10A in general.
The PDE10A2 assay was performed in a two step procedure in 96-well micro titer plates. The reaction mixture of 80 μl contained 20 mM HEPES/10 mM MgCl2/[…] (pH 7.5), 50 nM cGMP (Sigma) and 50 nM [^3H]-cGMP (GE Healthcare), 0.25 nM PDE10A2 with or without a specific test compound. A range of concentrations of the potential inhibitor was used to generate data for calculating the concentration of inhibitor resulting in 50% of the effect (e.g. IC50, the concentration of the competitor inhibiting PDE10A2 activity 50%). Non-specific activity was tested without the enzyme. The reaction was initiated by addition of the substrate solution (cGMP and [^3H]-cGMP) and allowed to progress for 30 minutes at room temperature. The reaction was terminated by transferring 50 μl of the reaction mixture into an OptiPlate (Perkin Elmer) containing 25 μl of YSi-SPA scintillation beads (GE Healthcare) in 18 mM zinc sulphate solution (stop reagent). After 1 h under shaking, the plate was centrifuged one minute at 1000 rpm to allow beads to settle. Afterwards, radioactive counts were measured on a Perkin Elmer TopCount Scintillation plate reader.
The catalytic domain of human PDE10A2, residues serine 449 to aspartate 789, was amplified by PCR using cDNA (Origene) and the oligonucleotides 5′-GGGGACAAGTTT […]-3′ (SEQ ID NO. 1) (with AttB1 recombination site in bold and thrombin protease cleavage site in italics) and 5′-[…] GCTG-3′ (SEQ ID NO. 2) (with AttB2 recombination site in bold) which conferred Gateway recombination sites. The PCR product was used in a BP recombination reaction with pDONR221 to generate pENTR Thm-PDE10A2(S449-D789) which was DNA sequence verified and then used in an LR recombination reaction with a Gateway modified version of pET11a. The resulting expression vector, placT7.2H6-(gw1)-Thm-PDE10A2(S449-D789) was DNA sequence confirmed and transformed into E. coli strain BL21(DE3) pLysS and recombinant protein was produced in TB medium at 20° C. by induction to a final IPTG concentration of 0.5 mM at an optical density of 1.0 at 600 nm for 20 hours. About 30% of the protein was in the soluble fraction of the cell homogenate. The protein was purified using sequential chromatography on Ni-NTA and HiTrapQ/HiTrapS. After thrombin digest at room temperature a HiTrapChelating/HiTrap Benzamindin chromatography removed impurities, uncleaved protein and thrombin. Final purification of PDE10A2(S449-D789) was performed on a Superdex 75 size exclusion chromatography equilibrated with 25 mM HEPES pH 8.4, 0.15 M NaCl. The yield of pure protein was 2 mg/liter of culture volume is relatively low. The purity of the protein was >95%, monomeric and monodisperse as shown by SDS-PAGE, HPLC and analytical ultracentrifugation.

T1 sequence (Q9Y233 715-1055): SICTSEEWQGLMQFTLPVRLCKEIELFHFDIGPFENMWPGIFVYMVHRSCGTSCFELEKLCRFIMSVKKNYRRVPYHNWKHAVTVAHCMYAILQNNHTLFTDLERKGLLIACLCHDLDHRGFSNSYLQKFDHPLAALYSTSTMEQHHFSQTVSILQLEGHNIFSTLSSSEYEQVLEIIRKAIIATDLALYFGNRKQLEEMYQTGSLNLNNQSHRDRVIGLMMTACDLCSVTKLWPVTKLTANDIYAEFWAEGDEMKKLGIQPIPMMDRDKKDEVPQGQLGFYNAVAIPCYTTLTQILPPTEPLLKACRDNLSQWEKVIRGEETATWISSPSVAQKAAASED

Compared with `O=c1ccn(-c2ccc(OC(F)(F)F)cc2)nc1-c1ccnn1-c1cccc2c1OC(F)(F)O2` [Example 145, 3-[2-(2,2-Difluoro-benzo[1,3]dioxol-4-yl)-2H-pyrazol-3-yl]-1-(4-trifluoromethoxy-phenyl)-1H-pyridazin-4-one], `O=c1ccn(-c2cccc(OC(F)(F)F)c2)nc1-c1ccnn1-c1ccc2c(c1)OC(F)(F)O2` [Example 162, 3-[2-(2,2-Difluoro-benzo[1,3]dioxol-5-yl)-2H-pyrazol-3-yl]-1-(3-trifluoromethoxy-phenyl)-1H-pyridazin-4-one] is 2.2-fold higher in IC50: 72 nM for the first, 155 nM for the second. The first is the more potent here.

Going from `O=c1ccn(-c2ccc(OC(F)F)cc2)nc1-c1ccnn1-c1ccnc2ccc(F)cc12` [Example 149, 1-(4-Difluoromethoxy-phenyl)-3-[2-(6-fluoro-quinolin-4-yl)-2H-pyrazol-3-yl]-1H-pyridazin-4-one] to `O=c1ccn(-c2cccc(OC(F)F)c2)nc1-c1ccnn1-c1ccnc2ccc(F)cc12` [Example 150, 1-(3-Difluoromethoxy-phenyl)-3-[2-(6-fluoro-quinolin-4-yl)-2H-pyrazol-3-yl]-1H-pyridazin-4-one], the IC50 falls from 14 nM to 5 nM (2.8-fold).

`CS(=O)(=O)c1ccc(-n2ccc(=O)c(-c3ccnn3-c3ccc(F)cc3)n2)cc1` [Example 153, 3-[2-(4-Fluoro-phenyl)-2H-pyrazol-3-yl]-1-(4-methanesulfonyl-phenyl)-1H-pyridazin-4-one] and `CS(=O)(=O)c1ccc(-n2ccc(=O)c(-c3ccnn3-c3cccc(Cl)c3)n2)cc1` [Example 157, 3-[2-(3-Chloro-phenyl)-2H-pyrazol-3-yl]-1-(4-methanesulfonyl-phenyl)-1H-pyridazin-4-one] are within 1.5-fold of each other in IC50: 67 nM for the first, 92 nM for the second.

First: O=c1ccn(-c2ccc(OC(F)F)cc2)nc1-c1ccnn1-c1cccc(OC(F)(F)F)c1 [Example 165, 1-(4-Difluoromethoxy-phenyl)-3-[2-(3-trifluoromethoxy-phenyl)-2H-pyrazol-3-yl]-1H-pyridazin-4-one]
Second: O=c1ccn(-c2ccc(OCC(F)(F)F)cc2)nc1-c1ccnn1-c1cccc(Cl)c1 [Example 257, 3-[2-(3-Chloro-phenyl)-2H-pyrazol-3-yl]-1-[4-(2,2,2-trifluoro-ethoxy)-phenyl]-1H-pyridazin-4-one]
The IC50 of the first is 17-fold higher: 51 nM for the first, 3 nM for the second. The second is the more potent here.

Compared with `O=c1ccn(-c2cccc(OC(F)F)c2)nc1-c1ccnn1-c1ccccc1F` [Example 171, 1-(3-Difluoromethoxy-phenyl)-3-[2-(2-fluoro-phenyl)-2H-pyrazol-3-yl]-1H-pyridazin-4-one], `O=c1ccn(-c2cccc(OC(F)F)c2)nc1-c1ccnn1-c1cccc(Cl)c1` [Example 206, 3-[2-(3-Chloro-phenyl)-2H-pyrazol-3-yl]-1-(3-difluoromethoxy-phenyl)-1H-pyridazin-4-one] is 2.7-fold lower in IC50: 46 nM for the first, 17 nM for the second. The second is the more potent here.

First: O=c1ccn(-c2ccc3c(c2)OC(F)(F)O3)nc1-c1ccnn1-c1ccccc1F [Example 174, 1-(2,2-Difluoro-benzo[1,3]dioxol-5-yl)-3-[2-(2-fluoro-phenyl)-2H-pyrazol-3-yl]-1H-pyridazin-4-one]
Second: O=c1ccn(-c2ccccc2)nc1-c1ccnn1-c1ccccc1F [Example 183, 3-[2-(2-Fluoro-phenyl)-2H-pyrazol-3-yl]-1-phenyl-1H-pyridazin-4-one]
The IC50 of the first is 3.9-fold higher: 184 nM for the first, 47 nM for the second. The second is the more potent here.

First: Cc1cc(-n2nccc2-c2nn(-c3cccc(OC(F)(F)F)c3)ccc2=O)c2cc(F)ccc2n1 [Example 177, 3-[2-(6-Fluoro-2-methyl-quinolin-4-yl)-2H-pyrazol-3-yl]-1-(3-trifluoromethoxy-phenyl)-1H-pyridazin-4-one]
Second: O=c1ccn(-c2cccc(OC(F)(F)F)c2)nc1-c1ccnn1-c1cccc2ncccc12 [Example 203, 3-(2-Quinolin-5-yl-2H-pyrazol-3-yl)-1-(3-trifluoromethoxy-phenyl)-1H-pyridazin-4-one]
The IC50 of the first is 2.1-fold higher: 27 nM for the first, 13 nM for the second.

Compared with `O=c1ccn(-c2ccc(OC(F)(F)F)cc2)nc1-c1ccnn1-c1ccnc2ccccc12` [Example 186, 3-(2-Quinolin-4-yl-2H-pyrazol-3-yl)-1-(4-trifluoromethoxy-phenyl)-1H-pyridazin-4-one], `O=c1ccn(-c2ccc(OCC(F)(F)F)cc2)nc1-c1ccnn1-c1ccnc2ccccc12` [Example 259, 3-(2-Quinolin-4-yl-2H-pyrazol-3-yl)-1-[4-(2,2,2-trifluoro-ethoxy)-phenyl]-1H-pyridazin-4-one] is 2-fold lower in IC50: 2 nM for the first, 1 nM for the second. The second is the more potent here.

`CS(=O)(=O)c1ccc(-n2ccc(=O)c(-c3ccnn3-c3cccc4cnccc34)n2)cc1` [Example 192, 3-(2-Isoquinolin-5-yl-2H-pyrazol-3-yl)-1-(4-methanesulfonyl-phenyl)-1H-pyridazin-4-one] and `O=c1ccn(-c2ccc(S(=O)(=O)C(F)(F)F)cc2)nc1-c1ccnn1-c1ccccc1F` [Example 232, 3-[2-(2-Fluoro-phenyl)-2H-pyrazol-3-yl]-1-(4-trifluoromethanesulfonyl-phenyl)-1H-pyridazin-4-one] are within 1.5-fold of each other in IC50: 13 nM for the first, 12 nM for the second.

Compared with `CCOc1cc(-n2nccc2-c2nn(-c3ccc(OC(F)(F)F)cc3)ccc2=O)ccn1` [Example 200, 3-[2-(2-Ethoxy-pyridin-4-yl)-2H-pyrazol-3-yl]-1-(4-trifluoromethoxy-phenyl)-1H-pyridazin-4-one], `O=c1ccn(-c2ccc(OC(F)(F)F)cc2)nc1-c1ccnn1-c1ccnc2ccc(Cl)cc12` [Example 224, 3-[2-(6-Chloro-quinolin-4-yl)-2H-pyrazol-3-yl]-1-(4-trifluoromethoxy-phenyl)-1H-pyridazin-4-one] is 2.1-fold lower in IC50: 46 nM for the first, 22 nM for the second.

Compared with `N#Cc1cccc(-n2ccc(=O)c(-c3ccnn3-c3ccnc4ccccc34)n2)c1` [Example 207, 3-[4-Oxo-3-(2-quinolin-4-yl-2H-pyrazol-3-yl)-4H-pyridazin-1-yl]-benzonitrile], `O=c1ccn(-c2cccc(Cl)c2)nc1-c1ccnn1-c1ccc(Cl)c2ccccc12` [Example 244, 3-[2-(4-Chloro-naphthalen-1-yl)-2H-pyrazol-3-yl]-1-(3-chloro-phenyl)-1H-pyridazin-4-one] is 9.2-fold higher in IC50: 5 nM for the first, 46 nM for the second. The first is the more potent here.

First: Cc1ccccc1-n1nccc1-c1nn(-c2ccc(C(F)(F)F)cc2)ccc1=O [Example 216, 3-(2-o-Tolyl-2H-pyrazol-3-yl)-1-(4-trifluoromethyl-phenyl)-1H-pyridazin-4-one]
Second: O=c1ccn(-c2ccc(C(F)(F)F)cc2)nc1-c1ccnn1-c1ccc(Cl)c2ccccc12 [Example 237, 3-[2-(4-Chloro-naphthalen-1-yl)-2H-pyrazol-3-yl]-1-(4-trifluoromethyl-phenyl)-1H-pyridazin-4-one]
The IC50 of the first is 5-fold lower: 20 nM for the first, 101 nM for the second.

First: O=c1ccn(-c2ccc(OCC(F)(F)F)cc2)nc1-c1ccnn1-c1ccccc1F [Example 255, 3-[2-(2-Fluoro-phenyl)-2H-pyrazol-3-yl]-1-[4-(2,2,2-trifluoro-ethoxy)-phenyl]-1H-pyridazin-4-one]
Second: O=c1ccn(-c2cccc(S(=O)(=O)C(F)(F)F)c2)nc1-c1ccnn1-c1ccccc1 [Example 281, 3-(2-Phenyl-2H-pyrazol-3-yl)-1-(3-trifluoromethanesulfonyl-phenyl)-1H-pyridazin-4-one]
The IC50 of the first is 3.4-fold lower: 5 nM for the first, 17 nM for the second. The first is the more potent here.

Compared with `O=c1ccn(-c2cccc(S(=O)(=O)N3CCCCC3)c2)nc1-c1ccnn1-c1ccnc2ccc(Cl)cc12` [Example 267, 3-[2-(6-Chloro-quinolin-4-yl)-2H-pyrazol-3-yl]-1-[3-(piperidine-1-sulfonyl)-phenyl]-1H-pyridazin-4-one], `O=c1ccn(-c2cccc(O)c2)nc1-c1ccnn1-c1ccc2c(c1)OCCO2` [Example 277, 3-[2-(2,3-Dihydro-benzo[1,4]dioxin-6-yl)-2H-pyrazol-3-yl]-1-(3-hydroxy-phenyl)-1H-pyridazin-4-one] is 10-fold lower in IC50: 40 nM for the first, 4 nM for the second.
